# Experimental data reported in patent US20240002398A1, “COMPLEX, AND USE THEREOF” (RIKEN, priority 2020, published 2024).
# Experiments:
# [1] = Fluorescence release, HPLC analysis of mixture with acrolein; format: physicochemical; details: 20 μM in DMSO, acrolein 1.0 eq, FIG. 9
# Description: (§1) To a solution of coumarin-ABC (compound 7) (2×10^−5 mmol, 1.0 eq) in DMSO (1 mL, [compound 7]=20 μM) was added glutathione (GSH) (2×10^−5 mmol, 1.0 eq) or acrolein (2×10^−5 mmol, 1.0 eq). The reaction liquid was stirred and the reaction mixture was subjected to HPLC analysis at different time intervals (30 minutes, 1 hour, 2 hours, 4 hours, and 12 hours). Conditions of reversed-phase HPLC were as follows: Column, Cosmosil 5C18-AR300 (manufactured by Nacalai Tesque, Inc.) 4.6×250 mm; Mobile phase A, 0.1% TFA in H2O; Mobile phase B, 0.1% TFA in CH3CN; Gradient elution, 0-4 min at 65% B, 4-14 min at 65-95% B, 14-20 min at 95% B; Flow rate at 1 mL/min; Fluorescence detection at 360/450 nm; Amount per injection 6 μL. Results are shown in FIG. 8 (GSH) and FIG. 9 (acrolein).
# [2] = Fluorescence release, HPLC analysis of mixture with glutathione; format: physicochemical; details: 20 μM in DMSO, GSH 1.0 eq, FIG. 8
# Description: as §1
# [3] = test system: MCF10A (normal human mammary cells); assay: Fluorescence release, cell-based assay, concentration-dependent; details: 2-20 μM, FIG. 3
# Text: (§2) Fluorescence intensity was normalized for each cell line by the number of 10,000 cells.
# [4] = test system: HeLa S3 (human cervical cancer cells); assay: as above; details: FIG. 5
# Text: as §2
# [5] = test system: A549 (human lung adenocarcinoma cells); assay: as above; details: FIG. 4
# Text: as §2
# [6] = Fluorescence spectra in water (0.2% DMSO); format: physicochemical; details: 2 μM in water (0.2% DMSO), FIG. 1
# Text: The results are shown in FIG. 1 (dashed line: compound 7, solid line: control compound).
# [7] = test system: MCF10A (normal human mammary cells); assay: Fluorescence release, cell-based assay, time-dependent; details: 2 μM or 20 μM, real-time 30 minutes, FIGS. 6 and 7
# Description: (§3) Fluorescence intensity was normalized for each cell line by the number of 10,000 cells. Results are shown in FIG. 6 (2 μM) and FIG. 7 (20 μM).
# [8] = test system: HeLa S3 (human cervical cancer cells); assay: as above; details: HeLa S3, 2 μM or 20 μM, real-time 30 minutes, FIGS. 6 and 7
# Description: as §3
# [9] = test system: A549 (human lung adenocarcinoma cells); assay: as above; details: A549, 2 μM or 20 μM, real-time 30 minutes, FIGS. 6 and 7
# Description: as §3
# MCF10A = assay: ATP assay (cytotoxicity assay), DOX-ABC and DOX; details: 0.05-50 μM, 48 hours at 37° C., FIG. 16
# Description: (§4) Three cell lines (MCF10A, A549, and HeLa S3) were seeded on a 96-well plate (2×10^4 cells/well) and left to attach for 24 hours at 37° C. Each of the cells was then used for two different conditions as follows:
# (§5) (Condition 1) The cells were treated with 100 μL of DOX-ABC (compound 7) solutions [0.05 μM, 0.1 μM, 0.5 μM, 1 μM, 5 μM, 10 μM, 50 μM in the culture medium (1% DMSO)] and incubated for 48 hours at 37° C. under 5% of CO2.
# (§6) (Condition 2) Incubation was carried out in a manner similar to that of condition 1 with use of doxorubicin (DOX) solutions.
# (§7) After the incubation, 100 μL of ATP lite 1 step reagent was added to the cells, and the fluorescence intensity was measured using a spectrofluorometer (SpectraMax iD3, manufactured by Molecular Devices).
# A549 = assay: ATP assay (cytotoxicity assay), DOX-ABC and DOX; details: A549, 0.05-50 μM, 48 hours at 37° C., FIG. 16
# Description: as §4, §5, §6, §7
# HeLa S3 = assay: ATP assay (cytotoxicity assay), DOX-ABC and DOX; details: HeLa S3, 0.05-50 μM, 48 hours at 37° C., FIG. 16
# Description: as §4, §5, §6, §7
# A549 xenograft tumors [10] = assay: A549 tumor bearing mice xenograft model, intratumoral administration (Example 8); details: for tumor growth (tumor size): intratumoral 10 μL, 4 times on days 0, 4, 7 and 11, FIGS. 17 and 18; for survival rate: intratumoral, at and after the fourth administration, Kaplan Meier, FIG. 19
# Description: The prepared mice were randomized, divided into three groups, and treated with the prodrugs and controls. Group 1 was intratumorally injected with 10 μL of compound 9 produced in Production Example 5 as a control (n=10). Group 2 was intratumorally injected with 10 μL of doxorubicin (n=10).
# Administrations were conducted 4 times in total on days 0, 4, 7, and 11 with the same doses. The tumor volumes of the mice were recorded every day based on an equation: V=W^2×L/2, where W and L represented the minor length and major length of the tumor, respectively. When the tumor reached 2,000 mm^3, the mice were sacrificed, and the survival rates were calculated using the Kaplan Meier method.
# A549 xenograft tumors [11] = assay: A549 tumor bearing mice xenograft model, intratumoral administration (Example 6); details: 12 times in consecutive days, mitomycin C 1.8 mg/kg, MMC-ABC 3.1 mg/kg, FIGS. 13 and 15
# Description: For all intratumoral injections and tumor measurements, mice were anesthetized with 2% isoflurane in oxygen at a 2.5-3.0 L/min flow rate.
# A549 cells were obtained from stock lines kept in liquid nitrogen. These cells were cultured in Dulbeccos's modified eagle's medium (DMEM) (manufactured by FUJIFILM Wako Pure Chemical Corporation) supplemented with 10% fetal bovine serum (FBS) (manufactured by BioWest) and 1% penicillin-streptomycin (manufactured by Gibco). The cells were then incubated at 37° C. in a 5% CO2 humidified atmosphere.
# A549 xenograft tumors were established in 6-week-old female nude mice BALB/cAJc1-nu/nu by subcutaneous injection of a suspension of 2.5-6.0×10^6 cells in 100 μL of cold 50% matrigel in unnourished DMEM into the right and left shoulders, and tumor growth was monitored. The mice were kept in controlled temperature, salinity, and aeration room with sufficient food and water for 12 hours day and 12 hours night. […]
# The administrations were repeated 12 times in consecutive days with the same doses. The tumor volume and body weight of the mice were recorded every day based on an equation: V=W^2×L/2, where W and L represented the minor length and major length of the tumor, respectively. When the tumor reached 2,000 mm^3, the mice were sacrificed, and the survival rates were calculated using the Kaplan Meier method. […]
# A549 xenograft tumors [12] = assay: A549 tumor bearing mice xenograft model, intratumoral administration (Example 9); format: in vivo; details: intratumoral 10 μL, 4 times on days 0, 4, 7 and 11; FIG. 20
compound,measurement,setting,value
Cc1cc(=O)oc2cc(NC(=O)OCc3cc(C(C)C)c(N=[N+]=[N-])c(C(C)C)c3)ccc12 [coumarin-ABC],reaction with acrolein,[1],rapidly reacted with each other
same,reaction with glutathione (GSH),[2],did not react with each other
same,state of the compound in the mixture with GSH,[2]; left for 12 hours,did not change
same,release of fluorescence,"[3]; 60 minutes at room temperature, no NAc-Cys (conditions 1 and 3)",hardly observed
same,release of fluorescence,"[3]; pre-treated with 1 mM N-acetyl cysteine 2 hours (condition 2), 60 minutes",hardly observed
same,release of fluorescence,"[4]; HeLa S3, 2-20 μM, 60 minutes at room temperature, no NAc-Cys (conditions 1 and 3)",notably observed
same,release of fluorescence,"[4]; HeLa S3, pre-treated with 1 mM N-acetyl cysteine 2 hours (condition 2), 2-20 μM, 60 minutes",low
same,release of fluorescence,"[5]; A549, 2-20 μM, 60 minutes at room temperature, no NAc-Cys (conditions 1 and 3)",notably observed
same,release of fluorescence,"[5]; A549, pre-treated with 1 mM N-acetyl cysteine 2 hours (condition 2), 2-20 μM, 60 minutes",low
same,fluorescence emission,[6],did not emit fluorescence
same,release of fluorescence,[7],only slightly observed
same,release of fluorescence,[8],notably observed depending on the time
same,release of fluorescence,[9],notably observed depending on the time
COc1cccc2c1C(=O)c1c(O)c3c(c(O)c1C2=O)C[C@@](O)(C(=O)CO)C[C@@H]3O[C@H]1C[C@H](NC(=O)OCc2cc(C(C)C)c(N=[N+]=[N-])c(C(C)C)c2)[C@H](O)[C@H](C)O1 [DOX-ABC],cytotoxicity (cell viability),MCF10A,released free DOX specifically in cancer cells
same,cytotoxicity (cell viability),A549,released free DOX specifically in cancer cells
same,cytotoxicity (cell viability),HeLa S3,released free DOX specifically in cancer cells
same,tumor growth (tumor size),A549 xenograft tumors [10],effective with respect to the tumor growth
same,survival rate,A549 xenograft tumors [10],100%
CO[C@@]12[C@H](COC(N)=O)C3=C(C(=O)C(C)=C(N)C3=O)N1C[C@@H]1N[C@@H]12 [mitomycin C],side effect,A549 xenograft tumors [11],inflammation on the whole body
"Cc1cc(C(C)C)c(N=[N+]=[N-])c(C(C)C)c1 [compound 9, 2-azido-1,3-diisopropyl-5-methylbenzene]",tumor growth (tumor size),A549 xenograft tumors [10],larger tumor size
"COc1cccc2c1C(=O)c1c(O)c3c(c(O)c1C2=O)C[C@@](O)(C(=O)CO)C[C@@H]3O[C@H]1C[C@H](N)[C@H](O)[C@H](C)O1 [doxorubicin, reference compound]",cytotoxicity (cell viability),MCF10A,nonspecifically exhibited cytotoxicity toward normal cells and cancer cells
same,cytotoxicity (cell viability),A549,nonspecifically exhibited cytotoxicity toward normal cells and cancer cells
same,cytotoxicity (cell viability),HeLa S3,nonspecifically exhibited cytotoxicity toward normal cells and cancer cells
same,tumor growth (tumor size),A549 xenograft tumors [10],effective with respect to the tumor growth
same,survival rate,A549 xenograft tumors [10],suddenly decreased
COc1ccc(CC(NC(=O)OCc2cc(C(C)C)c(N=[N+]=[N-])c(C(C)C)c2)C(=O)NC2C(O)[C@H](n3cnc4c(N(C)C)ncnc43)O[C@@H]2CO)cc1 (some centres unmarked) [PUR-ABC],tumor growth,A549 xenograft tumors [12],effective with respect to the tumor growth
